Where two headings read alike, the source gives them in different places. Positions of bridges follow the written chain, without caps; N, C: chain ends. Non-standard residues stand in square brackets, D forms with d. Residues, ends and D or L forms follow the SMILES beside them. No end group written: not given here. Lys(Me2) = CN(C)CCCC[C@H](N)C(=O)O; Abu = CC[C@H](N)C(=O)O
Assays:
hNav1.7 = hNav1.7 (Homo sapiens, UniProt Q15858); experiment: cell-based; type: cell-based
hNav1.3 = hNav1.3 (Homo sapiens, UniProt Q9NY46); experiment: cell-based; conditions: IonWorks Quattro, use-dependent block, hNav1.3; read-out: IWQ Use Nav1.3
[1] = IonWorks Quattro, Use, read-out: IWQ Use Nav1.7
[2] = IonWorks Quattro, use-dependent, […], read-out: IWQ Use Nav1.7 (μm)

Chain of hNav1.7 (Q15858 whole entry, looked up): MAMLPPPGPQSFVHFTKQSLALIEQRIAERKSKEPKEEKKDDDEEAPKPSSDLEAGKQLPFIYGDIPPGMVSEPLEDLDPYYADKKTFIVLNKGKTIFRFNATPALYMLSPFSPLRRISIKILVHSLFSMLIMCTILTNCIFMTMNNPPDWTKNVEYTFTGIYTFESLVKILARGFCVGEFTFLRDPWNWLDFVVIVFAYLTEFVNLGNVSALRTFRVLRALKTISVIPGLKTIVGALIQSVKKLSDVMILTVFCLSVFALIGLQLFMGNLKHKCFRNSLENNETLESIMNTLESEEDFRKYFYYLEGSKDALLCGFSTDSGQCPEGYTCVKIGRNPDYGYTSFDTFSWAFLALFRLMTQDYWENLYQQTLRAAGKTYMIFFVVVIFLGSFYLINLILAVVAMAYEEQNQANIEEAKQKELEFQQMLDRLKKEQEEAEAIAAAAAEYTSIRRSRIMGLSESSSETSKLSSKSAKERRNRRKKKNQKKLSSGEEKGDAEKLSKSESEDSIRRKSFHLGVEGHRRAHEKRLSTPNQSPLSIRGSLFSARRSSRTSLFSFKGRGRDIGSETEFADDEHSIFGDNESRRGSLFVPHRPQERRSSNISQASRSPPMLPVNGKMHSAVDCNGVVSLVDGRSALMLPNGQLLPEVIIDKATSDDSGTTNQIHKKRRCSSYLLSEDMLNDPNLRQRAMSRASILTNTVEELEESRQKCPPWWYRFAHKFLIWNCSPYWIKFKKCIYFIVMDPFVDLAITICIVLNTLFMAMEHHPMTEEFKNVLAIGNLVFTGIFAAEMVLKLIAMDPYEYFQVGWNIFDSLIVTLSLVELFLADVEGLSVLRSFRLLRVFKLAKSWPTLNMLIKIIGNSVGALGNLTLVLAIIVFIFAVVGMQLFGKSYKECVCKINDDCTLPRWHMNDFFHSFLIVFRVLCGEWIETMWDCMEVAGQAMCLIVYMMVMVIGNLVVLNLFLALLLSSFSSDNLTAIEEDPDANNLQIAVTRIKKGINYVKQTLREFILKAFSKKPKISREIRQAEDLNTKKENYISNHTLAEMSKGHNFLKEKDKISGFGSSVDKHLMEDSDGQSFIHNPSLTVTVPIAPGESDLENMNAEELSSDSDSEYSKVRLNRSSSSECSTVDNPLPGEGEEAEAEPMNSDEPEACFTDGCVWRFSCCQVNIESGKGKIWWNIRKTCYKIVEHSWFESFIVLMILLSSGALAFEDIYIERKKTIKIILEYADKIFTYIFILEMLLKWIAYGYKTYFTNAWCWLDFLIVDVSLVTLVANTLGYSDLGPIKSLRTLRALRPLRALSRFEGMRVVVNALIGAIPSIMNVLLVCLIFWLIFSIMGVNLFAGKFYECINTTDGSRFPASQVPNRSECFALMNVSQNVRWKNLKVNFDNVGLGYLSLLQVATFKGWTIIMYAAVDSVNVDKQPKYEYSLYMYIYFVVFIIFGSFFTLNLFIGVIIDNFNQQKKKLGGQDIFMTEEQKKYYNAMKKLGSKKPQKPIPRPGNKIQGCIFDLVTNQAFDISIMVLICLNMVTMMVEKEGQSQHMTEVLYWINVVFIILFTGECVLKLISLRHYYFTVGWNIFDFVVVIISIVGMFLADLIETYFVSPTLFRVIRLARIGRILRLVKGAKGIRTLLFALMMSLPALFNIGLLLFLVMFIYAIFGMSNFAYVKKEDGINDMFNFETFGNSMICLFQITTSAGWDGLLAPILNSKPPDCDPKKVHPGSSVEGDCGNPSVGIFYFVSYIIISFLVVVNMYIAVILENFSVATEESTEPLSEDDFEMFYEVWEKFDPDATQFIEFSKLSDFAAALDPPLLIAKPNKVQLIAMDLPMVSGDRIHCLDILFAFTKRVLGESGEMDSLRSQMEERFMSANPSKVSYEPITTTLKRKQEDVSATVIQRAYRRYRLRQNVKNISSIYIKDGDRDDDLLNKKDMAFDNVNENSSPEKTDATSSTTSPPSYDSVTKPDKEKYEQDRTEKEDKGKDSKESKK
Chain of hNav1.3 (Q9NY46 whole entry, looked up): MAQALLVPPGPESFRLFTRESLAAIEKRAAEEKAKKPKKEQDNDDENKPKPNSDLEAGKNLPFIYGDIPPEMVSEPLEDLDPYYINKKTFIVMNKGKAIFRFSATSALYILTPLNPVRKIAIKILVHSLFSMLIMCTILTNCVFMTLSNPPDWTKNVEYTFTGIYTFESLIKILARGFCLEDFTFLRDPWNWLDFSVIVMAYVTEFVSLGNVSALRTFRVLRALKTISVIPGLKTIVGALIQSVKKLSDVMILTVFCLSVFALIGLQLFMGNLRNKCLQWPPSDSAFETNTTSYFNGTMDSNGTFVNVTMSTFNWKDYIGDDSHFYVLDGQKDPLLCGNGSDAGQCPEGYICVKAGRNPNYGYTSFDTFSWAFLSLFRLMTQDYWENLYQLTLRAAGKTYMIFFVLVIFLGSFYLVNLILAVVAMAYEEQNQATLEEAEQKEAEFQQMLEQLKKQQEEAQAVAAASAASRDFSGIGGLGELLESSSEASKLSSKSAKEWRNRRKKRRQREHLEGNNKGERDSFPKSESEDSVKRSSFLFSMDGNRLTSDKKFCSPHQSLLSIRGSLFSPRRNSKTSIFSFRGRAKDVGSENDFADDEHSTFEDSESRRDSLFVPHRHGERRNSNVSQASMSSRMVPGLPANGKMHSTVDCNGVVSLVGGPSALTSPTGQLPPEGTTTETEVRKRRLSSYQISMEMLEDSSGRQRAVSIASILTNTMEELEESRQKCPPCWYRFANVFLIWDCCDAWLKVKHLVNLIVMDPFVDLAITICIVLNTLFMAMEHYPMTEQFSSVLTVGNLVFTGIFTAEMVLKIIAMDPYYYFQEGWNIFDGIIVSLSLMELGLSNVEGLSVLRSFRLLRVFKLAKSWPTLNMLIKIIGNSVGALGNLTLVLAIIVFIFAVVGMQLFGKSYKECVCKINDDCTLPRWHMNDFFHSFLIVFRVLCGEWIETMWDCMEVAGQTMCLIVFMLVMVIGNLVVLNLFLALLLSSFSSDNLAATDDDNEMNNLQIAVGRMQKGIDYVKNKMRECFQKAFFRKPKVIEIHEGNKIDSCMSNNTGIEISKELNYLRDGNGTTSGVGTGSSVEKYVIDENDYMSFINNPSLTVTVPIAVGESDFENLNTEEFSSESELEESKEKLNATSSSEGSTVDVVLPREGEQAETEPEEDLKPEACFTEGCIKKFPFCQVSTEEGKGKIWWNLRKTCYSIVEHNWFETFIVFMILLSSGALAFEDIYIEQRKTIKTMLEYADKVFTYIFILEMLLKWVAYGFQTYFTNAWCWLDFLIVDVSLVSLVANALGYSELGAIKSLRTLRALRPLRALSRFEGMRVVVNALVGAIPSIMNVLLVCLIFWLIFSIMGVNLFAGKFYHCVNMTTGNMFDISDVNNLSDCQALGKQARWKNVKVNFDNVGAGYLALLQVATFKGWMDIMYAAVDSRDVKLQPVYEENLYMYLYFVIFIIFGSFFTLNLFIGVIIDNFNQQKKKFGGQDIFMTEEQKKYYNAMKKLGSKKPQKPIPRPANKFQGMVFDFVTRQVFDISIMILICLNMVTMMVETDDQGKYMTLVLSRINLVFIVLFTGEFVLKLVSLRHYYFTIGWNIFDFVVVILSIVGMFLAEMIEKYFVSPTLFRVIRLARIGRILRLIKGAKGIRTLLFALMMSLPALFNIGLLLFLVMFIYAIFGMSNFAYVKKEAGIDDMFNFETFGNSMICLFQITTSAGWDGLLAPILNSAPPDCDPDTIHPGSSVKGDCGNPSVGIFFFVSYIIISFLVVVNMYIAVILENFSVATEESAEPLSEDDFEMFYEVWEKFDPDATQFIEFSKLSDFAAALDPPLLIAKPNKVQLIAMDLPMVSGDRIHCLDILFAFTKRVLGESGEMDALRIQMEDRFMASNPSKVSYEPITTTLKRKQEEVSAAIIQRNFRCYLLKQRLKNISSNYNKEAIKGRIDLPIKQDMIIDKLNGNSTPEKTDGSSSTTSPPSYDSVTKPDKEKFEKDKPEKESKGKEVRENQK

CC[C@H](C)[C@@H]1NC(=O)[C@@H]2CSSC[C@@H]3NC(=O)[C@H](C(C)C)NC(=O)[C@H](CC(C)C)NC(=O)[C@H](CC(N)=O)NC(=O)[C@@H]4CCCN4C(=O)[C@H](CCCNC(=N)N)NC(=O)[C@H](CSSC[C@H](NC(=O)[C@@H](N)CC(=O)O)C(=O)N[C@@H](CC(C)C)C(=O)NCC(=O)N[C@@H](Cc4ccccc4)C(=O)N[C@@H](CCSC)C(=O)N[C@@H](CCCNC(=N)N)C(=O)N[C@@H](CCCCN)C(=O)N2)NC(=O)[C@H](CSSC[C@@H](C(=O)N[C@@H](CCCCN)C(=O)N[C@@H](Cc2ccc(O)cc2)C(=O)N[C@H](C(=O)N[C@@H](Cc2ccccc2)C(N)=O)C(C)C)NC(=O)[C@H](Cc2c[nH]c4ccccc24)NC(=O)[C@H](CCC(N)=O)NC(=O)[C@H](Cc2cnc[nH]2)NC(=O)[C@H]([C@@H](C)O)NC(=O)[C@H](CCCNC(=N)N)NC(=O)[C@H](CO)NC3=O)NC(=O)[C@H](CCCCN)NC(=O)[C@H](CC(=O)O)NC(=O)[C@H](CC(N)=O)NC(=O)[C@H](CC(=O)O)NC(=O)[C@@H]2CCCN2C1=O [SEQ ID NO: 763, [Gln28]GpTx-1] (H-DCLGFMRKCIPDNDKCCRPNLVCSRTHQWCKYVF-NH2; disulfide 2-17, 9-23, 16-30)
IC50 (hNav1.7): 190 nM
IC50 (hNav1.3): 270 nM

CSCC[C@@H]1NC(=O)[C@H](Cc2ccccc2)NC(=O)CNC(=O)[C@H](CC(C)C)NC(=O)[C@@H](NC(=O)[C@@H](N)CC(=O)O)CSSC[C@@H]2NC(=O)[C@@H]3CSSC[C@@H](C(=O)N[C@@H](CCCCN)C(=O)N[C@@H](Cc4ccc(O)cc4)C(=O)N[C@H](C(=O)N[C@@H](Cc4ccccc4)C(N)=O)C(C)C)NC(=O)[C@H](Cc4c[nH]c5ccccc45)NC(=O)[C@H](CCCCN)NC(=O)[C@H](Cc4c[nH]cn4)NC(=O)[C@H]([C@@H](C)O)NC(=O)[C@H](CCCNC(=N)N)NC(=O)[C@H](CO)NC(=O)[C@H](CSSC[C@H](NC(=O)[C@H](CCCCN)NC(=O)[C@H](CCCNC(=N)N)NC1=O)C(=O)N[C@@H](Cc1ccccc1)C(=O)N1CCC[C@H]1C(=O)N[C@@H](CC(=O)O)C(=O)N[C@@H](CC(N)=O)C(=O)N[C@@H](CC(=O)O)C(=O)N[C@@H](CCCCN)C(=O)N3)NC(=O)[C@H](C(C)C)NC(=O)[C@H](CC(C)C)NC(=O)[C@H](CC(N)=O)NC(=O)[C@@H]1CCCN1C(=O)[C@H](CCCNC(=N)N)NC2=O [compound 302] (H-DCLGFMRKCFPDNDKCCRPNLVCSRTHKWCKYVF-NH2; disulfide 2-17, 9-23, 16-30)
IC50 (hNav1.7; [1]): 110 nM

CSCC[C@@H]1NC(=O)[C@H](Cc2ccccc2)NC(=O)CNC(=O)[C@H](CC(C)C)NC(=O)[C@@H](NC(=O)[C@@H](N)CC(=O)O)CSSC[C@@H]2NC(=O)[C@@H]3CSSC[C@@H](C(=O)N[C@@H](CCCCN)C(=O)N[C@@H](Cc4ccc(O)cc4)C(=O)N[C@H](C(=O)N[C@@H](Cc4ccccc4)C(N)=O)C(C)C)NC(=O)[C@H](Cc4c[nH]c5ccccc45)NC(=O)[C@H](CCCCN)NC(=O)[C@H](Cc4c[nH]cn4)NC(=O)[C@H]([C@@H](C)O)NC(=O)[C@H](CCCNC(=N)N)NC(=O)[C@H](CO)NC(=O)[C@H](CSSC[C@H](NC(=O)[C@H](CCCCN)NC(=O)[C@H](CCCNC(=N)N)NC1=O)C(=O)N[C@@H](Cc1c[nH]cn1)C(=O)N1CCC[C@H]1C(=O)N[C@@H](CC(=O)O)C(=O)N[C@@H](CC(N)=O)C(=O)N[C@@H](CC(=O)O)C(=O)N[C@@H](CCCCN)C(=O)N3)NC(=O)[C@H](C(C)C)NC(=O)[C@H](CC(C)C)NC(=O)[C@H](CC(N)=O)NC(=O)[C@@H]1CCCN1C(=O)[C@H](CCCNC(=N)N)NC2=O [compound 304] (H-DCLGFMRKCHPDNDKCCRPNLVCSRTHKWCKYVF-NH2; disulfide 2-17, 9-23, 16-30)
IC50 (hNav1.7; [1]): 50 nM

CSCC[C@@H]1NC(=O)[C@H](Cc2ccccc2)NC(=O)CNC(=O)[C@H](CC(C)C)NC(=O)[C@@H](NC(=O)[C@@H](N)CC(=O)O)CSSC[C@@H]2NC(=O)[C@@H]3CSSC[C@@H](C(=O)N[C@@H](CCCCN)C(=O)N[C@@H](Cc4ccc(O)cc4)C(=O)N[C@H](C(=O)N[C@@H](Cc4ccccc4)C(N)=O)C(C)C)NC(=O)[C@H](Cc4c[nH]c5ccccc45)NC(=O)[C@H](CCCCN)NC(=O)[C@H](Cc4c[nH]cn4)NC(=O)[C@H]([C@@H](C)O)NC(=O)[C@H](CCCNC(=N)N)NC(=O)[C@H](CO)NC(=O)[C@H](CSSC[C@H](NC(=O)[C@H](CCCCN)NC(=O)[C@H](CCCNC(=N)N)NC1=O)C(=O)N[C@@H](CO)C(=O)N1CCC[C@H]1C(=O)N[C@@H](CC(=O)O)C(=O)N[C@@H](CC(N)=O)C(=O)N[C@@H](CC(=O)O)C(=O)N[C@@H](CCCCN)C(=O)N3)NC(=O)[C@H](C(C)C)NC(=O)[C@H](CC(C)C)NC(=O)[C@H](CC(N)=O)NC(=O)[C@@H]1CCCN1C(=O)[C@H](CCCNC(=N)N)NC2=O [compound 305] (H-DCLGFMRKCSPDNDKCCRPNLVCSRTHKWCKYVF-NH2; disulfide 2-17, 9-23, 16-30)
IC50 (hNav1.7; [1]): 50 nM

CSCC[C@@H]1NC(=O)[C@H](Cc2ccccc2)NC(=O)CNC(=O)[C@H](CC(C)C)NC(=O)[C@@H](NC(=O)[C@@H](N)CC(=O)O)CSSC[C@@H]2NC(=O)[C@@H]3CSSC[C@@H](C(=O)N[C@@H](CCCCN)C(=O)N[C@@H](Cc4ccc(O)cc4)C(=O)N[C@H](C(=O)N[C@@H](Cc4ccccc4)C(N)=O)C(C)C)NC(=O)[C@H](Cc4c[nH]c5ccccc45)NC(=O)[C@H](CCCCN)NC(=O)[C@H](Cc4c[nH]cn4)NC(=O)[C@H]([C@@H](C)O)NC(=O)[C@H](CCCNC(=N)N)NC(=O)[C@H](CO)NC(=O)[C@H](CSSC[C@H](NC(=O)[C@H](CCCCN)NC(=O)[C@H](CCCNC(=N)N)NC1=O)C(=O)N[C@@H]([C@@H](C)O)C(=O)N1CCC[C@H]1C(=O)N[C@@H](CC(=O)O)C(=O)N[C@@H](CC(N)=O)C(=O)N[C@@H](CC(=O)O)C(=O)N[C@@H](CCCCN)C(=O)N3)NC(=O)[C@H](C(C)C)NC(=O)[C@H](CC(C)C)NC(=O)[C@H](CC(N)=O)NC(=O)[C@@H]1CCCN1C(=O)[C@H](CCCNC(=N)N)NC2=O [compound 309] (H-DCLGFMRKCTPDNDKCCRPNLVCSRTHKWCKYVF-NH2; disulfide 2-17, 9-23, 16-30)
IC50 (hNav1.7; [1]): 100 nM

CC[C@H](C)[C@@H]1NC(=O)[C@@H]2CSSC[C@@H]3NC(=O)[C@H](C(C)C)NC(=O)[C@H](CC(C)C)NC(=O)[C@H](CC(N)=O)NC(=O)[C@@H]4CCCN4C(=O)[C@H](CCCCN(C)C)NC(=O)[C@H](CSSC[C@H](NC(=O)[C@@H](N)CC(=O)O)C(=O)N[C@@H](CC(C)C)C(=O)NCC(=O)N[C@@H](Cc4ccccc4)C(=O)N[C@@H](CCSC)C(=O)N[C@@H](CCCNC(=N)N)C(=O)N[C@@H](CCCCN)C(=O)N2)NC(=O)[C@H](CSSC[C@@H](C(=O)N[C@@H](CCCCN)C(=O)N[C@@H](Cc2ccc(O)cc2)C(=O)N[C@H](C(=O)N[C@@H](Cc2ccccc2)C(N)=O)C(C)C)NC(=O)[C@H](Cc2c[nH]c4ccccc24)NC(=O)[C@H](CCCCN)NC(=O)[C@H](Cc2c[nH]cn2)NC(=O)[C@H]([C@@H](C)O)NC(=O)[C@H](CCCNC(=N)N)NC(=O)[C@H](CO)NC3=O)NC(=O)[C@H](CCCCN)NC(=O)[C@H](CC(=O)O)NC(=O)[C@H](CC(N)=O)NC(=O)[C@H](CC(=O)O)NC(=O)[C@@H]2CCCN2C1=O [compound 314] (H-DCLGFMRKCIPDNDKCC[Lys(Me2)]PNLVCSRTHKWCKYVF-NH2; disulfide 2-17, 9-23, 16-30)
IC50 (hNav1.7; [1]): 210 nM

CC[C@H](C)[C@@H]1NC(=O)[C@@H]2CSSC[C@@H]3NC(=O)[C@H](C(C)C)NC(=O)[C@H](CC(C)C)NC(=O)[C@H](CC(N)=O)NC(=O)[C@@H]4CCCN4C(=O)[C@H](CCCNC(=N)N)NC(=O)[C@H](CSSC[C@H](NC(=O)[C@@H](N)CC(=O)O)C(=O)N[C@@H](CC(C)C)C(=O)NCC(=O)N[C@@H](Cc4ccccc4)C(=O)N[C@@H](CCSC)C(=O)N[C@@H](CCCNC(=N)N)C(=O)N[C@@H](CCCCN)C(=O)N2)NC(=O)[C@H](CSSC[C@@H](C(=O)N[C@@H](CCCCN)C(=O)N[C@@H](Cc2ccc(O)cc2)C(=O)N[C@H](C(N)=O)C(C)C)NC(=O)[C@H](Cc2c[nH]c4ccccc24)NC(=O)[C@H](CCCCN)NC(=O)[C@H](Cc2c[nH]cn2)NC(=O)[C@H]([C@@H](C)O)NC(=O)[C@H](CCCNC(=N)N)NC(=O)[C@H](CO)NC3=O)NC(=O)[C@H](CCCCN)NC(=O)[C@H](CC(=O)O)NC(=O)[C@H](CC(N)=O)NC(=O)[C@H](CC(=O)O)NC(=O)[C@@H]2CCCN2C1=O [compound 415] (H-DCLGFMRKCIPDNDKCCRPNLVCSRTHKWCKYV-NH2; disulfide 2-17, 9-23, 16-30)
IC50 (hNav1.7; [2]): 2350 nM

CC[C@H](C)[C@@H]1NC(=O)[C@@H]2CSSC[C@@H]3NC(=O)[C@H](C(C)C)NC(=O)[C@H](CC(C)C)NC(=O)[C@H](CC(N)=O)NC(=O)[C@@H]4CCCN4C(=O)[C@H](CCCNC(=N)N)NC(=O)[C@H](CSSC[C@H](NC(=O)[C@@H](N)CC(=O)O)C(=O)N[C@@H](CC(C)C)C(=O)NCC(=O)N[C@@H](Cc4ccccc4)C(=O)N[C@@H](CCSC)C(=O)N[C@@H](CCCNC(=N)N)C(=O)N[C@@H](CCCCN)C(=O)N2)NC(=O)[C@H](CSSC[C@@H](C(=O)N[C@@H](CCCCN)C(=O)N[C@@H](Cc2ccc(O)cc2)C(N)=O)NC(=O)[C@H](Cc2c[nH]c4ccccc24)NC(=O)[C@H](CCCCN)NC(=O)[C@H](Cc2c[nH]cn2)NC(=O)[C@H]([C@@H](C)O)NC(=O)[C@H](CCCNC(=N)N)NC(=O)[C@H](CO)NC3=O)NC(=O)[C@H](CCCCN)NC(=O)[C@H](CC(=O)O)NC(=O)[C@H](CC(N)=O)NC(=O)[C@H](CC(=O)O)NC(=O)[C@@H]2CCCN2C1=O [compound 416] (H-DCLGFMRKCIPDNDKCCRPNLVCSRTHKWCKY-NH2; disulfide 2-17, 9-23, 16-30)
IC50 (hNav1.7; [2]): 1500 nM

[2-Abu-2,17]GpTx-1 (D[Abu]LGFMRKCIPDNDKC[Abu]RPNLVCSRTHKWCKYVF-NH2; ends and bridges not checked)
activity against NaV1.7 relative to GpTx-1, in words (hNav1.7): retains significant activity

[Glu18;desAsn20]GpTx-1 (DCLGFMRKCIPDNDKCCEGLVCSRTHKWCKYVF-NH2; ends and bridges not checked)
activity against NaV1.7 relative to GpTx-1, in words (hNav1.7): without substantial impact on the activity

[Ser-Ser19]GpTx-1 (DCLGFMRKCIPDNDKCCRSSNLVCSRTHKWCKYVF-NH2; ends and bridges not checked)
activity against NaV1.7 relative to GpTx-1, in words (hNav1.7): without substantial impact on the activity

Reference: US9340590B2 (priority 2011, dated 2016)
